Laboratory results published in patent publication US20060004197A1, “Sulfonamide-based compounds as protein tyrosine kinase inhibitors” (priority 2004, published 2006).

Molecular target: T1, Recombinant human Src (Homo sapiens, UniProt P12931)
T1 construct: made in house; host or cells: baculovirus-insect cell system
Assay: Src tyrosine kinase activity, poly E4Y / 32P-ATP phosphorylation assay
Format: biochemical
Conditions: Table 2, Formula I compounds; NI = no inhibition at 100 μg/mL

IC50 [µM]	Compound
1060	N-[4-chloro-2-(4-toluenesulfonylamino)-phenyl]-4-toluenesulfonamide [Compound 6]

Same assay, conditions: poly E4Y / 32P-ATP; Formula IV compounds

Compound	IC50 [µM]
COc1ccc(Oc2ccc(NS(=O)(=O)c3ccc(C)cc3)c(OCCO)c2)cc1 [Compound 62, N-[2-(2-hydroxy-ethoxy)-4-(4-methoxy-phenoxy)-phenyl]-4-toluenesulfonamide]	126
COc1ccc(Oc2ccc(NS(=O)(=O)c3ccc(C)cc3)c(OCCCO)c2)cc1 [Compound 63, N-[2-(3-hydroxy-propoxy)-4-(4-methoxy-phenoxy)-phenyl]-4-toluenesulfonamide]	212
COc1ccc(Oc2ccc(NS(=O)(=O)c3ccc(C)cc3)c(OCC(O)CO)c2)cc1 (stereo not drawn) [Compound 64, N-[2-(2,3-dihydroxy-propoxy)-4-(4-methoxy-phenoxy)-phenyl]-4-toluenesulfonamide]	189
COc1ccc(Oc2ccc(NS(=O)(=O)c3ccc(C)cc3)c(OCC(=O)O)c2)cc1 [Compound 65, [5-(4-methoxy-phenoxy)-2-(4-toluenesulfonylamino)-phenoxy]-acetic acid]	169
COc1ccc(OCc2ccc(OC)c(NS(=O)(=O)c3ccc(C)cc3)c2)cc1 [Compound 66, N-[2-methoxy-5-(4-methoxy-phenoxymethyl)-phenyl]-4-toluenesulfonamide]	119

Next, values leading:

IC50 [µM]	Compound
133	COc1ccc(Oc2ccc(NS(=O)(=O)c3ccc(C)cc3)c(C(=O)O)c2)cc1 [Compound 68, 5-(4-methoxy-phenoxy)-2-(4-toluenesulfonylamino)-benzoic acid]
1970	Cc1ccc(S(=O)(=O)Nc2ccc(Sc3ccc(Cl)cc3)c([N+](=O)[O-])c2)cc1 [Compound 69, N-[4-(4-chloro-phenylsulfanyl)-3-nitro-phenyl]-4-toluenesulfonamide]
599	Cc1ccc(S(=O)(=O)Nc2ccc([N+](=O)[O-])c(Sc3ccc(Cl)cc3)c2)cc1 [Compound 70, N-[3-(4-chloro-phenylsulfanyl)-4-nitro-phenyl]-4-toluenesulfonamide]

Molecular target: Recombinant Csk (Homo sapiens, UniProt P41240)
Assay: Csk tyrosine kinase activity, poly E4Y / 32P-ATP phosphorylation assay
Format: biochemical
Conditions: Table 2, Formula I compounds; NI = no inhibition at 100 μg/mL

IC50 [µM]	Compound
172	N-[4-chloro-2-(4-toluenesulfonylamino)-phenyl]-4-toluenesulfonamide [Compound 6]

Same assay, conditions: poly E4Y / 32P-ATP; Formula IV compounds

Compound	IC50 [µM]
COc1ccc(Oc2ccc(NS(=O)(=O)c3ccc(C)cc3)c(OCCO)c2)cc1 [Compound 62, N-[2-(2-hydroxy-ethoxy)-4-(4-methoxy-phenoxy)-phenyl]-4-toluenesulfonamide]	15
COc1ccc(Oc2ccc(NS(=O)(=O)c3ccc(C)cc3)c(OCCCO)c2)cc1 [Compound 63, N-[2-(3-hydroxy-propoxy)-4-(4-methoxy-phenoxy)-phenyl]-4-toluenesulfonamide]	> 225
COc1ccc(Oc2ccc(NS(=O)(=O)c3ccc(C)cc3)c(OCC(O)CO)c2)cc1 (stereo not drawn) [Compound 64, N-[2-(2,3-dihydroxy-propoxy)-4-(4-methoxy-phenoxy)-phenyl]-4-toluenesulfonamide]	> 218
COc1ccc(Oc2ccc(NS(=O)(=O)c3ccc(C)cc3)c(OCC(=O)O)c2)cc1 [Compound 65, [5-(4-methoxy-phenoxy)-2-(4-toluenesulfonylamino)-phenoxy]-acetic acid]	> 225
COc1ccc(OCc2ccc(OC)c(NS(=O)(=O)c3ccc(C)cc3)c2)cc1 [Compound 66, N-[2-methoxy-5-(4-methoxy-phenoxymethyl)-phenyl]-4-toluenesulfonamide]	> 242

Continued, values first:

IC50 [µM]	Compound
303	COc1ccc(Oc2ccc(NS(=O)(=O)c3ccc(C)cc3)c(C(=O)O)c2)cc1 [Compound 68, 5-(4-methoxy-phenoxy)-2-(4-toluenesulfonylamino)-benzoic acid]
986	Cc1ccc(S(=O)(=O)Nc2ccc(Sc3ccc(Cl)cc3)c([N+](=O)[O-])c2)cc1 [Compound 69, N-[4-(4-chloro-phenylsulfanyl)-3-nitro-phenyl]-4-toluenesulfonamide]
369	Cc1ccc(S(=O)(=O)Nc2ccc([N+](=O)[O-])c(Sc3ccc(Cl)cc3)c2)cc1 [Compound 70, N-[3-(4-chloro-phenylsulfanyl)-4-nitro-phenyl]-4-toluenesulfonamide]

Molecular target: FGF receptor (FGFr)
Assay: FGFr tyrosine kinase activity, poly E4Y / 32P-ATP phosphorylation assay
Format: biochemical
Conditions: Table 2, Formula I compounds; NI = no inhibition at 100 μg/mL

IC50 [µM]	Compound
20.2	N-[4-chloro-2-(4-toluenesulfonylamino)-phenyl]-4-toluenesulfonamide [Compound 6]

Same assay, conditions: poly E4Y / 32P-ATP; Formula IV compounds

Compound	IC50 (μM) FGFr	IC50 [µM]
COc1ccc(Oc2ccc(NS(=O)(=O)c3ccc(C)cc3)c(OCCO)c2)cc1 [Compound 62, N-[2-(2-hydroxy-ethoxy)-4-(4-methoxy-phenoxy)-phenyl]-4-toluenesulfonamide]	NI (NI = no inhibition at 100 μg/mL)	–
COc1ccc(Oc2ccc(NS(=O)(=O)c3ccc(C)cc3)c(OCCCO)c2)cc1 [Compound 63, N-[2-(3-hydroxy-propoxy)-4-(4-methoxy-phenoxy)-phenyl]-4-toluenesulfonamide]	NI (NI = no inhibition at 100 μg/mL)	–
COc1ccc(Oc2ccc(NS(=O)(=O)c3ccc(C)cc3)c(OCC(O)CO)c2)cc1 (stereo not drawn) [Compound 64, N-[2-(2,3-dihydroxy-propoxy)-4-(4-methoxy-phenoxy)-phenyl]-4-toluenesulfonamide]	NI (NI = no inhibition at 100 μg/mL)	–
COc1ccc(Oc2ccc(NS(=O)(=O)c3ccc(C)cc3)c(OCC(=O)O)c2)cc1 [Compound 65, [5-(4-methoxy-phenoxy)-2-(4-toluenesulfonylamino)-phenoxy]-acetic acid]	NI (NI = no inhibition at 100 μg/mL)	–
COc1ccc(OCc2ccc(OC)c(NS(=O)(=O)c3ccc(C)cc3)c2)cc1 [Compound 66, N-[2-methoxy-5-(4-methoxy-phenoxymethyl)-phenyl]-4-toluenesulfonamide]	–	162

Second part, the compound after the results:

IC50 (μM) FGFr	IC50 [µM]	Compound
NI (NI = no inhibition at 100 μg/mL)	–	COc1ccc(Oc2ccc(NS(=O)(=O)c3ccc(C)cc3)c(C(=O)O)c2)cc1 [Compound 68, 5-(4-methoxy-phenoxy)-2-(4-toluenesulfonylamino)-benzoic acid]
NI (NI = no inhibition at 100 μg/mL)	–	Cc1ccc(S(=O)(=O)Nc2ccc(Sc3ccc(Cl)cc3)c([N+](=O)[O-])c2)cc1 [Compound 69, N-[4-(4-chloro-phenylsulfanyl)-3-nitro-phenyl]-4-toluenesulfonamide]
–	251	Cc1ccc(S(=O)(=O)Nc2ccc([N+](=O)[O-])c(Sc3ccc(Cl)cc3)c2)cc1 [Compound 70, N-[3-(4-chloro-phenylsulfanyl)-4-nitro-phenyl]-4-toluenesulfonamide]
